Reference: patent publication US20160052898A1, “NOVEL COMPOUNDS” (BAYER PHARMA AKTIENGESELLSCHAFT, priority 2013, published 2016)
Counter-ions that a name gives are not always drawn. Like-named read-outs stand apart in the source and are kept apart here.

Columns and labels:
[1] = tested on: constitutive active colorectal cancer cell (CRC) Wnt pathway; assay: HCT116 Super TopFlash cellular reporter assay (constitutive active Wnt pathway); format: cell-based; details: HCT116 TOP reporter cells, luciferase expression, 36 hours incubation, 50 μM to 15 nM
Outline: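 HCT116 cells (β-catenin ΔS45) stably carrying Super TopFlash, with a parallel FOP-control line, were plated 24 h ahead. They were exposed 36 h at 37 °C, 5% CO2 to compound from a 50 μM–15 nM, 3.16-fold pre-dilution series in CAFTY buffer (pH 7.4, 2 mM Ca2+, 0.01% BSA). Wnt signalling was read as luciferase luminescence.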

[2] = tested on: HCT116 FOP control reporter cell line; assay: HCT116 FOP control vector reporter assay (non-functional TCF elements); format: cell-based; details: HCT116 FOP control reporter cells, luciferase expression, 36 hours incubation, 50 μM to 15 nM, read-out: HCT116 FOPFlash IC50
Outline: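 Stable HCT116 line carrying the non-functional FOP luciferase construct, 10000 cells/well plated 24 hrs before. Compounds 50 μM to 15 nM (3.16-fold steps) in CAFTY buffer pH 7.4 with 2 mM Ca2+, 36 hours at 37° C; luciferase luminescence read.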

IC50 ([1]; Homo sapiens, HCT-116, 36 h)	IC50 ([2]; Homo sapiens, HCT-116, 36 h)	IC50 [1]	IC50 [2]	Structure (SMILES)
676 nM	20200 nM			NCCCOc1ccc(C(=O)Nc2ccc(-c3ccccc3)cc2)cc1NC(=O)C1(N2CCOCC2)CC1 [Example 89, 4-(3-aminopropoxy)-N-(biphenyl-4-yl)-3-({[1-(morpholin-4-yl)cyclopropyl]carbonyl}amino)benzamide hydrochloride (1:1)]
1110 nM	≥ 50000 nM			COCCNCC(=O)Nc1cc(NC(=O)c2ccc(-c3ccccc3)cc2)ccc1OC [Example 42, N-(4-methoxy-3-{[N-(2-methoxyethyl)glycyl]amino}phenyl)biphenyl-4-carboxamide]
12.2 nM	≥ 50000 nM			O=C(Nc1ccc(OC(F)(F)F)c(NC(=O)C2(N3CCOCC3)CC2)c1)c1ccc(-c2ccccc2)cc1 [Example 148, N-[3-({[1-(morpholin-4-yl)cyclopropyl]carbonyl}amino)-4-(trifluoromethoxy)phenyl] biphenyl-4-carboxamide]
456 nM	33000 nM			CN(C)C1(C(=O)Nc2cc(NC(=O)c3ccc(-c4ccccc4)cc3)ccc2OC(F)(F)F)CC1 [Example 188, N-[3-({[1-(dimethylamino)cyclopropyl]carbonyl}amino)-4-(trifluoromethoxy)phenyl] biphenyl-4-carboxamide]
134 nM	≥ 50000 nM			COCCOCc1ccc(C(=O)Nc2ccc(-c3ccccc3)cc2)cc1NC(=O)C(C)N1CCOCC1 (centres unmarked) [Example 164, N-(biphenyl-4-yl)-4-[(2-methoxyethoxy)methyl]-3-{[2-(morpholin-4-yl)propanoyl]amino} benzamide]
194 nM	≥ 50000 nM			O=C(CN1CCOCC1)Nc1cc(C(=O)Nc2ccc(-c3ccccc3)cc2)ccc1OCCO [Example 93, N-(biphenyl-4-yl)-4-(2-hydroxyethoxy)-3-[(morpholin-4-ylacetyl)amino]benzamide]
374 nM	≥ 50000 nM			COc1ccc(NC(=O)c2ccc(-c3ccccc3)cc2)cc1NC(=O)C1(N2CCN(C3CC3)CC2)CC1 [Example 185, N-[3-({[l-(4-cyclopropylpiperazin-1-yl)cyclopropyl]carbonyl}amino}-4-melhoxyphenyl)biphenyl-4-carboxamide]
2480 nM	≥ 50000 nM			COc1ccc(C(=O)Nc2ccc(-c3ccccc3)cc2)cc1NC(=O)C1(N2CCOCC2)CCC1 [Example 206, N-(biphenyl-4-yl)-4-methoxy-3-({[1-(morpholin-4-yl)cyclobutyl)carbonyl}amino)benzamide]
3450 nM	≥ 50000 nM			COc1ccc(NC(=O)c2ccc(-c3ccccc3)cc2)cc1NC(=O)CN1CCC2(CCO2)C1 (centres unmarked) [Example 46, N-{4-methoxy-3-[(1-oxa-6-azaspiro[3.4]oct-6-ylacetyl)amino]phenyl}biphenyl-4-carboxamide]
211 nM	≥ 50000 nM			CC(C(=O)Nc1cc(NC(=O)c2ccc(-c3ccccc3)cc2)ccc1C(F)(F)F)N1CCOCC1 (single isomer, unassigned) [Example 172, N-[3-{[(2R*)-2-(morpholin-4-yl)propanoyl]amino}-4-(trifluoromethyl)phenyl] biphenyl-4-carboxamide]
448 nM	≥ 50000 nM			COCCOc1ccc(C(=O)Nc2ccc(-c3ccccc3)cc2)cc1NC(=O)CN1CCOCC1 [Example 92, N-(biphenyl-4-yl)-4-(2-methoxyethoxy)-3-[(morpholin-4-ylacetyl)amino]benzamide]
	≥ 50000 nM	311 nM		CC(C(=O)Nc1cc(NC(=O)c2ccc(-c3ccccc3)cc2)ccc1C(F)(F)F)N1CC2CCC(C1)O2 (single isomer, unassigned) [Example 182, N-[3-{[(2R*)-2-(8-oxa-3-azabicyclo[3.2.1]oct-3-yl)propanoyl]amino}-4-(trifluoromethyl)phenyl] biphenyl-4-carboxamide]
		214 nM	7500 nM	COCc1ccc(C(=O)Nc2ccc(-c3ccccc3)cc2)cc1NC(=O)C(C)N1CCOCC1 (single isomer, unassigned) [Example 173, N-(biphenyl-4-yl)-4-(methoxymethyl)-3-{[(2S*)-2-(morpholin-4-yl)propanoyl]amino} benzamide]

The remaining lines, values behind:

Structure (SMILES)	IC50 ([1]; Homo sapiens, HCT-116, 36 h)	IC50 ([2]; Homo sapiens, HCT-116, 36 h)	IC50 [1]	IC50 [2]
COc1ccc(C(=O)Nc2ccc(-c3ccccc3)cc2)cc1NC(=O)[C@@H](C)N1CCOCC1 [Example 153, N-(biphenyl-4-yl)-4-methoxy-3-{[(2R)-2-(morpholin-4-yl)propanoyl]amino} benzamide]	44 nM	≥ 50000 nM		
O=C(CN1CCOCC1)Nc1cc(NC(=O)c2ccc(-c3ccccc3)cc2)ccc1F [Example 29, N-{4-fluoro-3-[(morpholin-4-ylacetyl)amino]phenyl}biphenyl-4-carboxamide]	2150 nM	≥ 50000 nM		
O=C(CN1CCOCC1)Nc1cc(C(=O)Nc2ccc(-c3ccccc3)cc2)ccc1OCCCO [Example 121, N-(biphenyl-4-yl)-4-(3-hydroxypropoxy)-3-[(morpholin-4-ylacetyl)amino]benzamide]	237 nM	≥ 50000 nM		
CC(C)NC(=O)c1ccc(C(=O)Nc2ccc(-c3ccccc3)cc2)cc1NC(=O)CN1CCOCC1 [Example 155, N^4-(biphenyl-4-yl)-2-[(morpholin-4-ylacetyl)amino]-N^1-(propan-2-yl)benzene-1,4-dicarboxamide]	49.8 nM	≥ 50000 nM		
O=C(CN1CC2CCC(C1)O2)Nc1cc(C(=O)Nc2ccc(-c3ccccc3)cc2)ccc1C(F)(F)F [Example 10, N-(biphenyl-4-yl)-3-[(8-oxa-3-azabicyclo[3.2.1]oct-3-ylacetyl)amino]-4-(trifluoromethyl)benzamide]	170 nM	≥ 50000 nM		
COCCOCc1ccc(C(=O)Nc2ccc(-c3ccccc3)cc2)cc1NC(=O)C(C)N1CCOCC1 (single isomer, unassigned) [Example 162, N-(biphenyl-4-yl)-4-[(2-methoxyethoxy)methyl]-3-{[(2R*)-2-(morpholin-4-yl)propanoyl)amino} benzamide]	103 nM	10400 nM		
COc1ccc(NC(=O)c2ccc(-c3ccccc3)cc2)cc1NC(=O)CN1CCOC[C@@H]1CCO [Example 213, N-[3-({[(3S)-3-(2-hydroxyethyl)morpholin-4-yl]acetyl}amino)-4-methoxyphenyl]biphenyl-4-carboxamide]	4600 nM	≥ 50000 nM		
NC(=O)c1ccc(C(=O)Nc2ccc(-c3ccccc3)cc2)cc1NC(=O)CN1CCOCC1 [Example 116, N^4-(Biphenyl-4-yl)-2-[(morpholin-4-ylacetyl)amino]terephthalamide]	132 nM	≥ 50000 nM		
COc1ccc(NC(=O)c2ccc(-c3ccccc3)cc2)cc1NC(=O)C1(N2CCOCC2)CC1 [Example 150, N-[4-methoxy-3-({[1-(morpholin-4-yl)cyclopropyl]carbonyl}amino)phenyl]biphenyl-4-carboxamide]	26.2 nM	≥ 50000 nM		
CN(C)CCCNC(=O)c1ccc(C(=O)Nc2ccc(-c3ccccc3)cc2)cc1NC(=O)CN1CCOCC1 [Example 104, N^4-(biphenyl-4-yl)-N^1-[3-(dimethylamino)propyl]-2-[(morpholin-4-ylacetyl)amino]terephthalamide]	534 nM	7400 nM		
C[C@H](C(=O)Nc1cc(NC(=O)c2ccc(-c3ccccc3)cc2)ccc1F)N1CCOCC1 [Example 31, N-(4-fluoro-3-{[(2R)-2-(morpholin-4-yl)propanoyl]amino}phenyl)biphenyl-4-carboxamide]	3830 nM	≥ 50000 nM		
COc1c(Cl)cc(C(=O)Nc2ccc(-c3ccccc3)cc2)cc1NC(=O)CN1CCOCC1 [Example 136, N-(biphenyl-4-yl)-3-chloro-4-methoxy-5-[(morpholin-4-ylacetyl]amino]benzamide]	750 nM	38500 nM		
COc1ccc(C(=O)Nc2ccc(-c3ccccc3)cc2)cc1NC(=O)CN1C[C@H]2C[C@@H]1CO2 [Example 201, N-(biphenyl-4-yl)-4-methoxy-3-{[(1R,4R)-2-oxa-5-azabicyclo[2.2.1]hept-5-ylacetyl)amino}benzamide]	1900 nM	≥ 50000 nM		
COCc1ccc(C(=O)Nc2ccc(-c3ccccc3)cc2)cc1NC(=O)Cn1cccn1 [Example 187, N-(biphenyl-4-yl)-4-(methoxymethyl)-3-[(1H-pyrazol-1-ylacetyl)amino]benzamide]	423 nM	≥ 50000 nM		
CN1CCN(CC(=O)Nc2cc(C(=O)Nc3ccc(-c4ccccc4)cc3)ccc2OCC2CC2)CC1 [Example 222, N-(biphenyl-4-yl)-4-(cyclopropylmethoxy)-3-{[(4-methylpiperazin-1-yl)acetyl]amino}benzamide]	105 nM	9000 nM		
COc1ccc(NC(=O)c2ccc(-c3ccccc3)cc2)cc1NC(=O)CCN1CCOCC1 [Example 141, N-(4-methoxy-3-{[3-(morpholin-4-yl)propanoyl]amino}phenyl) biphenyl-4-carboxamide]	2500 nM	≥ 50000 nM		
O=C(Nc1ccc([N+](=O)[O-])cc1Cl)c1cc(Cl)ccc1O [Ref., niclosamide, reference compound]	1380 nM	3100 nM		
COc1ccc(NC(=O)c2ccc(-c3ccccc3)cc2)cc1NC(=O)[C@@H](C)N1CC2CCC(C1)O2 [Example 57, N-(4-methoxy-3-{[(2R)-2-(8-oxa-3-azabicyclo[3.2.1]oct-3-yl)propanoyl]amino}phenyl)biphenyl-4-carboxamide]	490 nM	≥ 50000 nM		
